Test results published in US20050222043A1, “Use of proteasome inhibitor in the treatment of fibrotic diseases” (priority 2002, published 2005).
“Also recorded” adds a separate entry of the source. Peptide text beside a SMILES is read from it. * marks the point of attachment. Cbz = O=C(OCc1ccccc1)*

Tests used:
[1] = system: collagens Iα1, Iα2 and IIIα1; test: Real-time PCR of collagen expression (stated jointly) in cardiac fibroblasts; format: cell-based, rat; details: primary cardiac fibroblasts, FIG. 2B
Method: (§1) Cardiac fibroblasts were prepared from neonatal Wistar rats by plating the non-myocyte fraction of neonatal hearts. The hearts were removed from neonatal rats being 2-3 days old. Ventricular tissue was treated over night at 4° C. with […] trypsin in Hanks-Balanced Salt Saline (HBSS) (Ca^2+- and Mg^2+-free, Invitrogen™, Karlsruhe, Germany) and with collagenase (0,5 mg per ml) in Leibowitz medium (L-15, Invitrogen™, Karlsruhe, Germany) for 45 minutes at 37° C. After washing, the cells were pre-plated at 37° C. for one hour. The adherent cells predominantly were cardiac fibroblasts, which were then further cultivated under standard conditions in standard M199-medium with 10% new-born calf serum, L-glutamine and penicillin-streptomycin (Invitrogen™, Karlsruhe, Germany). In the experiments, we used sub-cultivated fibroblasts of the passages 3-7.
(§2) Total RNA was extracted by means of Trizol reagent (Invitrogen™, Karlsruhe, Germany). In the following, the RNA was subjected to reverse transcription (AMF Reverse Transkriptase, Roche Biochemicals, Mannheim, Germany) and treated with DNase (Ambion, Huntington, UK). […] The relative quantification was performed by means to the comparative CT-method as being described by the manufacturer. […]

[2] = system: spontaneously hypertensive rats (SH-rats); test: Histological determination of cardiac fibrosis (quantitative morphometry of siriusred-stained left-ventricular sections) in SH-rats; format: in vivo, rat; details: MG132-treated, FIG. 1B
Method: For the pathohistological evaluation, the rat hearts were embedded into paraffin, cut into sections having a thickness of 3 μm, subjected to a haematoxylin-eosin and siriusred staining and analysed as being described in Hocher, B. et al., (1999), Hypertension, 3, 816-822. The degree of heart fibrosis was evaluated by means of quantitative morphometry of the siriusred-stained sections with an image analysis system (Quantimed 500, Image 1.61 program). In this analysis, the ratio of the red-stained tissue (connective tissue) and the total tissue of the section was determined.
Male SH-rats of the same age were obtained from the Jackson Laboratory, Maine, USA. […] The blood pressure was measured weekly by means of the standard tail-cuff method. The blood values and the standard laboratory markers of the renal and hepatic functions were determined 6 weeks after the treatment and at the end of the study by means of standard methods. At the end of the study, the animals were anaesthetised by means of an intraperitoneal injection of a 20% urethane solution (0,9 g per kg body weight) and the left-ventricular pressure parameters were determined as being described by Saragoca, M. et al. (1981) Hypertension, 3, 380-385. […]
The data was determined in the form of mean values ±S.E.M., if not otherwise indicated. […]

collagen Iα2 = test: Real-time PCR of collagen Iα2 mRNA in cardiac fibroblasts; format: cell-based, rat; details: primary cardiac fibroblasts
Method: as §1
(§3) Total RNA was extracted by means of Trizol reagent (Invitrogen™, Karlsruhe, Germany). In the following, the RNA was subjected to reverse transcription (AMF Reverse Transkriptase, Roche Biochemicals, Mannheim, Germany) and treated with DNase (Ambion, Huntington, UK). […] The relative quantification was performed by means to the comparative CT-method as being described by the manufacturer.

NFκB = test: Band shift analysis for active NFκB in nuclear extracts of cardiac fibroblasts; format: cell-based, rat; details: 0,5 μM with IL-1β; not less than 6 hours
Method: This was additionally confirmed in band shift analyses with oligonucleotides comprising a NFκB-DNA binding site. For this test, nuclear extracts from cardiac fibroblasts were prepared, which were treated with 0,5 μM MG132 or, respectively, with DMSO (solvent control) in a time course in the presence or absence of IL-1β.

[3] = system: spontaneously hypertensive rats (SH-rats); test: Left-ventricular pressure parameters in SH-rats; format: in vivo, rat; details: 1 mg/kg daily i.p., 12 weeks
Method: (§4) Male SH-rats of the same age were obtained from the Jackson Laboratory, Maine, USA. The animals were maintained according to the international guidelines for the keeping und use of laboratory animals. 6-week-old rats were treated for 12 weeks with MG132 (1 mg per kg body weight), 0,1% DMSO as solvent control or with physiological saline (n=10 per group, daily intraperitoneal injection). The animals were fed with a high salt diet (drinking water with 2% sodium chloride). The blood pressure was measured weekly by means of the standard tail-cuff method. The blood values and the standard laboratory markers of the renal and hepatic functions were determined 6 weeks after the treatment and at the end of the study by means of standard methods. At the end of the study, the animals were anaesthetised by means of an intraperitoneal injection of a 20% urethane solution (0,9 g per kg body weight) and the left-ventricular pressure parameters were determined as being described by Saragoca, M. et al. (1981) Hypertension, 3, 380-385. The organs were withdrawn, weighed and either shock-frozen in liquid nitrogen or embedded in paraffin for the histological analysis. Since no difference was observed between the DMSO-treated and the salt-treated SH-rats in respect to the above mentioned parameters, the DMSO-treated animals served as a control for the MG132-treatment.
(§5) The data was determined in the form of mean values ±S.E.M., if not otherwise indicated. The significance of the differences in the left-ventricular pressure parameters and in the quantification of the heart fibrosis was determined according to Student's T-test. For the cell proliferation test, the significance was determined by comparing the regression coefficients of MG132 in relation to the control group. An error probability of p<0,05 was considered as being significant. The software SPSS 9.0 was used for all statistical calculations.

cardiac fibroblasts = test: Proliferation test (trypanblue exclusion cell counting); format: cell-based, rat; details: 0,1 and 1 μM, 10% serum, counted daily for 7 days
Method: Cardiac fibroblasts were prepared from neonatal Wistar rats by plating the non-myocyte fraction of neonatal hearts. The hearts were removed from neonatal rats being 2-3 days old. Ventricular tissue was treated over night at 4° C. with […] trypsin in Hanks-Balanced Salt Saline (HBSS) (Ca^2+- and Mg^2+-free, Invitrogen™, Karlsruhe, Germany) and with collagenase (0,5 mg per ml) in Leibowitz medium (L-15, Invitrogen™, Karlsruhe, Germany) for 45 minutes at 37° C. After washing, the cells were pre-plated at 37° C. for one hour. […]
MG132, ALLM and MG262 were purchased at Calbiochem® (San Diego, Calif., USA) and provided as 10 mM DMSO stock solutions. […] The proliferation was determined by counting the living cells in triplicate in daily intervals by means of the trypanblue exclusion test. […]
as §5, with “An error probability of p<0,05 was considered as being significant. The software SPSS 9.0 was used for all statistical calculations.” left out

collagen IIIα1 = test: Real-time PCR of collagen IIIα1 mRNA in cardiac fibroblasts; format: cell-based, rat; details: primary cardiac fibroblasts
Method: as §1, §3

[4] = system: spontaneously hypertensive rats (SH-rats); test: Animal study: tolerability, blood pressure, weights, blood values in SH-rats; format: in vivo, rat
Method: as §4

MMP2 and MMP9 = test: Real-time PCR of MMP expression in cardiac fibroblasts; format: cell-based, rat; details: FIG. 4A
Method: as §1, §2

collagen Iα1 = test: Real-time PCR of collagen Iα1 mRNA in cardiac fibroblasts; format: cell-based, rat; details: primary cardiac fibroblasts
Method: as §1, §3

| Compound | effect on collagen expression [1] | cardiac fibrosis in heart section (in words) [2] | expression of collagen Iα2 (in words) (collagen Iα2; FIG. 2B) | down-regulation / inhibition of collagen Iα2 RNA expression (collagen Iα2; dose-dependent) | effect on IL-1β-induced NFκB activation (band shift) (NFκB) | LVEDP compared with control (in words) ([3]; 1 mg/kg) | dp/dtmax compared with control (in words) ([3]; 1 mg/kg) | left-ventricular end-diastolic (filling) pressure LVEDP ([3]; mean ± S.E.M.) [mm Hg] | maximal pressure drop rate dp/dtmin ([3]; mean ± S.E.M.) [mm Hg/s] | inhibition of proliferation / growth of cardiac fibroblasts (cardiac fibroblasts) | expression of collagen IIIα1 (in words) (collagen IIIα1; FIG. 2B) | down-regulation / inhibition of collagen IIIα1 RNA expression (collagen IIIα1; dose-dependent) | tolerability of long-term treatment ([4]; SH-rats, 1 mg per kg daily, 12 weeks) | Body Weight ([4]; SH-rats, 1 mg/kg MG132) [g] | differential blood picture and laboratory markers of kidney or liver side effects ([4]; blood samples after 6 weeks and at end of study) | expression of MMP2 and MMP9 under co-stimulation with IL-1β (MMP2 and MMP9) | expression of collagen Iα1 (collagen Iα1) |
| --- | --- | --- | --- | --- | --- | --- | --- | --- | --- | --- | --- | --- | --- | --- | --- | --- | --- |
| CSCC[C@@H](C=O)NC(=O)[C@H](CC(C)C)NC(=O)[C@H](CC(C)C)NC(C)=O [ALLM] (Ac-Leu-Leu-Met-aldehyde) | no effects | – | – | – | – | – | – | – | – | – | – | – | – | – | – | – | – |
| CC(C)C[C@@H](C=O)NC(=O)[C@H](CC(C)C)NC(=O)[C@H](CC(C)C)NC(=O)OCc1ccccc1 [MG132, Z-Leu-Leu-Leu-al] (Cbz-Leu-Leu-Leu-aldehyde) | – | significantly reduced cardiac fibrosis | dose-dependent and dramatic reduction | up to 73% | small inhibitory effect | remarkably reduced pressure level; also recorded: significantly lower | significantly higher; also recorded: more than twice higher | 5±3 | −5046±726 | dose-dependent inhibition of proliferation | dose-dependent and dramatic reduction | up to 91% | very well tolerated; also recorded: in general well tolerated | 280 ± 15.3 | neither changes in the differential blood picture nor a change in the laboratory markers | surprisingly strong reduction | unaffected |
| CC(C)C[C@H](NC(=O)[C@H](CC(C)C)NC(=O)[C@H](CC(C)C)NC(=O)OCc1ccccc1)B(O)O [MG262] | inhibited the collagen expression in a comparably effective manner | – | – | – | – | – | – | – | – | – | – | – | – | – | – | – | – |
